This is an account of results in article PMC9871744 (Cellular and Molecular Gastroenterology and Hepatology, 2022).

Several values for one entry are separate records, joined by “and”; a condition that tells them apart may be missing. Equal entries are not always repeated.

Series [1] relates to HepG2 cells. Kind of series: Micronucleus analysis.
Series [2] has as its system HepG2 cells. Kind of series: Cytotoxicity evaluation.
Series [3] can be described thus: Cytotoxicity evaluation. Conditions: human, Cytotoxicity (%).
The subject of series [4] is C57Bl/6 male mice. Put plainly: Lingual application: pancreato-bile secretion and release of gut peptides. In kind it is in vivo. To be noted: tongue application 100 μmol/L; at 30 and 60 minutes.
Series [5] deals with human fungiform TBC. Kind of series: Ca2+ signaling in human fungiform TBC. Format: cell-based.
In series [6] the test system is human androgen receptor (hAR). Kind of series: Androgen receptor transcriptional activation and inhibition assays. Format: cell-based.
Series [7] concerns the target T1, human estrogen receptor alpha (hERα) (Homo sapiens, UniProt P03372).
T1 sequence (P03372 1-595): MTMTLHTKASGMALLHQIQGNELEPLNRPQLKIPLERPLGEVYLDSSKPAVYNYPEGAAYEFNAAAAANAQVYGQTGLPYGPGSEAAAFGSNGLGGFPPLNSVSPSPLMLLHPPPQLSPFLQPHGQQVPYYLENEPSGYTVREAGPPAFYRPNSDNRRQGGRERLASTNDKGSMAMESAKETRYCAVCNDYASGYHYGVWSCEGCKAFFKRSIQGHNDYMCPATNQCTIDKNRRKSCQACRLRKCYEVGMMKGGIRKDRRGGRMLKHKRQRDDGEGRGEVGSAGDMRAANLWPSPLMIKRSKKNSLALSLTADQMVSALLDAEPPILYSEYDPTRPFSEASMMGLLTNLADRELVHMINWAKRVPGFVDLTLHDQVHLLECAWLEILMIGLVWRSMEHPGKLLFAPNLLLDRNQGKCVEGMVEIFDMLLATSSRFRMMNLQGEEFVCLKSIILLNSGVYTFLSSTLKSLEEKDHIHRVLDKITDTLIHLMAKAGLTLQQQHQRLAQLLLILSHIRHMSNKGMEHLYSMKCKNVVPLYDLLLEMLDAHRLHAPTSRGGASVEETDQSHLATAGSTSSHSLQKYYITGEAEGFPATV
Put plainly: Estrogen receptor transcriptional activation and inhibition assays. Format: cell-based.

Series [8] deals with chorda tympani (CT) nerve. Kind of series: Chorda tympani. Format: in vivo. Conditions: lingual application in mice; 1, 2, and 4 mmol/L; normalized to NH4Cl 100 mmol/L.
The subject of series [9] is mouse fungiform TBC. Put plainly: Ca2+ signaling in mouse fungiform TBC. In kind it is cell-based. Conditions: LA at 20 μmol/L.
Series [10] can be described thus: Pharmacokinetics and detection in blood by LC-MS. To be noted: mice. In kind it is in vivo, mice.
In series [11] the test system is C57BL/6J male mice. Kind of series: Diet-induced obesity. Format: in vivo.
Series [12] has as its system C57Bl/6 male mice. Kind of series: Two-bottle preference and licking tests. In kind it is in vivo. To be noted: 75 μmol/L in 0.3% xanthan gum, 12 hours.
The subject of series [13] is S typhimurium tester strains TA98, TA100, TA1535, and TA1537 and E coli tester strain WP2uvrA(pKM101). To be noted: all doses with and without S9.
Series [14] has as its system female Wistar rats. Kind of series: Toxicity / median lethal dose test, OECD guidelines 425. In kind it is in vivo.
Where [15] appears, read: short treatment in the presence of S9 mix, 5 μg/mL (Table 11).
[16] abbreviates: short treatment in the presence of S9 mix, 10 μg/mL (Table 12).
Where [17] appears, read: short treatment in the presence of S9 mix, 5 μg/mL (Table 4).
Where [18] appears, read: short treatment in the presence of S9 mix, 10 μg/mL (Table 7).
Where [19] appears, read: short treatment in the absence of S9 mix, 2.5 mmol/L.
The mark [20] stands for this setting: short treatment in the absence of S9 mix, 5 mmol/L.
[21] abbreviates: short treatment in the absence of S9 mix, 10 mmol/L.
Where [22] appears, read: short treatment in the presence of S9 mix, 2.5 mmol/L.
Where [23] appears, read: short treatment in the presence of S9 mix, 5 mmol/L.
The mark [24] stands for this setting: short treatment in the presence of S9 mix, 10 mmol/L.
Where [25] appears, read: extended treatment in the absence of S9 mix, 2.5 mmol/L.
Setting [26] is: extended treatment in the absence of S9 mix, 5 mmol/L.
[27] abbreviates: extended treatment in the absence of S9 mix, 10 mmol/L.
Setting [28] is: extended treatment in the absence of S9 mix.
The mark [29] stands for this setting: short treatment in the absence of S9 mix.
[30] abbreviates: short treatment in the presence of S9 mix.
Setting [31] is: rats, single oral 2000 mg/kg, means ± SEM (n = 5).
[32] abbreviates: extended treatment in the absence of S9 mix, 0.0025 μg/mL (Table 13).
Setting [33] is: extended treatment in the absence of S9 mix, 0.025 μg/mL (Table 14).
The mark [34] stands for this setting: extended treatment in the absence of S9 mix, 0.0025 μg/mL (Table 5).
Where [35] appears, read: extended treatment in the absence of S9 mix, 0.025 μg/mL (Table 8).

`O=P1(N(CCCl)CCCl)NCCCO1` (stereo not drawn) [Cyclophosphamide, reference compound]: in series [1] (setting [15]), the “MNBN cells frequency (%)” value was 2.3% and 3.1%; the “Mean frequency (%) of MNBN cells” value came out at 2.70%. Further, in series [1] (setting [16]), the “MNBN cells frequency (%)” value is 8.2% and 7.9%; the “Mean frequency (%) of MNBN cells” value worked out at 8.05%. In [2] (setting [17]), the CBPI was 1.73 and 1.66; the “Mean CBPI” value stood at 1.70. Also, in series [2] (setting [18]), the CBPI is 1.93 and 2.09; the “Mean CBPI” value stood at 2.01. Besides, the cytotoxicity at 5 μg/mL in series [3] (setting [17]) came out at 13%. In [3] (setting [18]), the cytotoxicity at 10 μg/mL worked out at 5.3%.

Consider `CCCCC/C=C\C/C=C\CCCCCCCC(=O)O` [LA, linoleic acid, reference compound], for which the “release of cholecystokinin (CCK) into blood” value in [4] is recorded as “better inducer than NKS-3”.

As to `CCCCC/C=C\C/C=C\CCCCCCCC(=O)OCC1(C)COC1` [NKS-5, (9Z,12Z)-(3-methyloxetan-3-yl)methyl octadeca-9,12-dienoate], the “Ca2+ signaling compared with a dietary long-chain fatty acid” value in [5] and in series [9] was “higher” in each case. In addition, the “increase in intracellular free Ca2+ concentrations, [Ca2+]i” value in [5] (NKS-3 50 μmol/L, NKS-5 25 μmol/L) is listed as “induced an increase”. Besides, the “androgenic or antiandrogenic property (conclusion)” value in series [6] is “did not possess androgenic or antiandrogenic property”. The “estrogenic or antiestrogenic potential (conclusion)” value in [7] is “did not exert an estrogenic or antiestrogenic potential”. In [8], the “CT nerve responses compared with dietary LCFAs (LA, OA)” value was “higher”. Besides, the “MNBN cells frequency (%)” value in series [1] (setting [19]) was 1.1% and 0.8%; in series [1] (setting [20]), 1.1% and 1.3%; in series [1] (setting [21]) it was 0.9% and 0.8%; in series [1] (setting [22]), 1.0% and 1.1%; in [1] (setting [23]) it was 0.9%; in series [1] (setting [24]), 0.9% and 0.8%. Also, the “Mean frequency (%) of MNBN cells” value worked out at 0.95% in [1] (setting [19]); 1.20% in series [1] (setting [20]); 0.85% in series [1] (setting [21]); 1.05% in [1] (setting [22]); 0.90% in [1] (setting [23]); 0.85% in series [1] (setting [24]). Besides, the CBPI in [2] (setting [25]) was 2.02 and 1.97; in series [2] (setting [26]) it was 1.83 and 1.85; in series [2] (setting [27]) it was 1.95 and 1.84; in series [2] (setting [19]), 1.99 and 1.98; in [2] (setting [20]), 1.95 and 1.94; in series [2] (setting [21]) it was 1.91 and 1.93. The CBPI in [2] (setting [22]) is 2.07; in series [2] (setting [23]), 2.14 and 2.12; in series [2] (setting [24]), 2.06 and 2.04. Further, the “Mean CBPI” value in series [2] (setting [25]) worked out at 1.99; in series [2] (setting [26]) it was 1.84; in [2] (setting [27]) it was 1.89; in series [2] (setting [19]), 1.98; in series [2] (setting [20]), 1.94; in series [2] (setting [21]), 1.92. The “Mean CBPI” value in series [2] (setting [22]) amounted to 2.07; in series [2] (setting [23]), 2.13; in series [2] (setting [24]), 2.05. For the same compound, the cytotoxicity at 2.5 mmol/L was 5.29% in series [3] (setting [28]), -5.78% in [3] (setting [29]) and -0.59% in [3] (setting [30]). Moreover, the cytotoxicity at 5 mmol/L is 19.6% in [3] (setting [28]), -1.42% in series [3] (setting [29]) and -6.22% in series [3] (setting [30]). In addition, the cytotoxicity at 10 mmol/L in series [3] (setting [28]) is 14.7%; in series [3] (setting [29]), 1.32%; in series [3] (setting [30]), 1.64%. Also, the “detection in blood circulation after intravenous injections (LC-MS)” value in [10] is reported as “below the level of detection”. Moreover, the “CD36 (reduced) and GPR120 (high) protein expression in TBC, Western blots” value in series [11] (HFD animals, FTA intake 16 weeks) is reported as “reversed this trend”. Further, the “LA-induced decreases in [Ca2+]i in TBC from obese mice” value in series [11] (HFD mice given FTA 16 weeks) is listed as “reversed”. For the same compound, in series [11] (HFD-fed mice), the size of hepatocytes entry is “decreased”. Further, the “fecal microbiota: bacterial family increased” value in series [11] (HFD-fed mice, 16S rRNA sequencing, week 26) was “Bacteroidaceae”. In series [11] (HFD-fed mice, epididymal adipose tissue), the “adipose tissue mRNA encoding leptin, CD36, TNF-α, and IL6” value is on record as “down-regulated”. For the same compound, the “crown-like structures of adipocytes” value in series [11] (obese animals, histology) is given as “decreased”. The “circulating TNF-α levels” value in [11] (obese mice) was “failed to decrease significantly”. Also, the “release of GLP-1, CCK-1, and PYY into blood circulation” value in [11] (obese mice, end of week 26) was “induced the release”. Besides, in series [12], the “preference in 2-bottle paradigm versus control solution” value was “significant preference”. The “release of cholecystokinin (CCK) into blood” value in series [4] is “more efficient than NKS-3 and LA”. The “release of peptide YY (PYY) into blood” value in series [4] is “more potent than NKS-3 and LA”. Moreover, the “toxicity in the tester strains” value in [13] was “No toxicity”. Further, in [14] (setting [31]), the weight of kidneys stood at 1.84 ± 0.112 g. The compound also yielded a weight of liver in series [14] (setting [31]) of 8.03 ± 0.136 g. Further, the weight of spleen in series [14] (setting [31]) stood at 0.90 ± 0.062 g. The “toxic effect on liver enzymes and blood lipid parameters” value in series [14] (rats, single oral limit dose 2000 mg/kg body weight, 2 weeks) was “No toxic effect”. For the same compound, in [14] (single animal, oral dosages of 5000 mg/kg body weight), the “evidence of toxicity, preliminary study” value is listed as “no evidence of toxicity”.

As for `CC[C@]1(O)C[C@@H]2CN(CCc3c([nH]c4ccccc34)[C@@](C(=O)OC)(c3cc4c(cc3OC)N(C)[C@H]3[C@@](O)(C(=O)OC)[C@H](OC(C)=O)[C@]5(CC)C=CCN6CC[C@]43[C@@H]65)C2)C1` [Vinblastine, reference compound], in series [1] (setting [32]), the “MNBN cells frequency (%)” value is 11.5% and 12.3%; the “Mean frequency (%) of MNBN cells” value was found to be 11.9%. For the same compound, in [1] (setting [33]), the “MNBN cells frequency (%)” value is 4.6% and 4.1%; the “Mean frequency (%) of MNBN cells” value was 4.35%. In series [2] (setting [34]), the CBPI is 1.67 and the “Mean CBPI” value is given as 1.67. In series [2] (setting [35]), the CBPI was 1.97 and 1.92; the “Mean CBPI” value is given as 1.95. In series [3] (setting [34]), the cytotoxicity at 0.0025 μg/mL was 27.1%. Besides, the cytotoxicity at 0.025 μg/mL in series [3] (setting [35]) is 9.29%.
